Consider three compounds from ChEMBL document CHEMBL1158644, “An investigation of the antitumor activity of Micromelum integerrimum (Rutaceae)” (1979).

Assay [1] concerns P388. Briefly: In vivo antitumor activity against mouse P388 cells at 10 mg/kg. The format is functional.
Assay [2] has as its system 9KB. Briefly: Cytotoxicity against human 9KB cells. The format is functional, cell-based.
Assay [3] has as its system Lewis lung carcinoma cell line. Briefly: In vivo antitumor activity against mouse LLC at 1.25 mg/kg. The format is functional.
Assay [4] relates to CCRF S-180. In words: Cytotoxicity against mouse S180 cells. The class given is functional, cell-based.
Assay [5] deals with L1210. Briefly: Cytotoxicity against mouse L1210 cells. The class given is functional, cell-based.
Assay [6] concerns CA-755. Briefly: In vivo antitumor activity against mouse CA-755 cells at 100 mg/kg. The format is functional.
Assay [7] relates to P388. Briefly: In vivo antitumor activity against mouse P388 cells at 400 mg/kg. The format is functional.

Active and inactive are the calls of the source. No cut-off for these calls is given here.

As to `COc1cc2oc(=O)ccc2cc1C1OC(=O)[C@]2(C)O[C@H]12` (some centres undefined), the T/C – broadly, the ratio of treated to control – in assay [1] is 149%; in assay [3] it was 228%. Besides, the result in assay [2] was inactive.
Consider `COc1cc2oc(=O)ccc2cc1C1C=C(C)C(=O)O1` (centres undefined), for which the result in assay [2] was inactive.
In the case of `COc1cc2ccc(=O)oc2cc1O` [SCOPOLETIN], the outcome in assay [4], in assay [5] and in assay [2] was inactive. Also, the T/C in assay [6] is reported as 48%; in assay [7], 130%.
